Data published in EP1683514B1, “Process for the preparation of concentrated suspensions of drugs and kit thereof” (Eratech S.r.l., priority 2005, dated 2006).

How the values were obtained:
[1] = Purity test after β or γ irradiation (degradation of the pharmaceutical substance); type: physicochemical; details: powder
Protocol: A test of microbial count was then carried out on the irradiated suspensions to determine if a satisfactory sterility was achieved. A purity test was also carried out to determine if any degradation of the pharmaceutical substance budesonide was provoked by the irradiation treatment. As a comparison, a test of microbial count and purity was carrier out also on a sample of micronized budesonide powder. A test of microbial count was then carried out on the irradiated suspensions to determine if a satisfactory sterility was achieved. A purity test was also carried out to determine if any degradation of the pharmaceutical substance BDP was provoked by the irradiation treatment. As a comparison, a test of microbial count and purity was carrier out also on a sample of micronized BDP powder.

[2] = Particle size distribution of the micronized powder; type: physicochemical
Protocol: Micronized Beclomethasone Dipropionate (BDP) powder was added slowly under stirring the solution so obtained. The micronized powder had the following particle size distribution: d(0.1) 0.44 µm, d(0.5) 1.13 µm e d(0.9) 2.42 µm.
Micronized Budesonide powder was added slowly under stirring the solution so obtained. The micronized powder had the following particle size distribution: d(0.1) 0.50 µm, d(0.5) 1.39µm; d(0.9) 3.15 µm.
180 mg of BDP micronized powder were added to the solution so prepared. PSD of the powder was: d(0.1) 0.44 µm, d(0.5) 1.13 µm e d(0.9) 2.42 µm, namely the same PSD of the BDP powder used to prepare the concentrated suspensions of examples 1 - 4.

Purity ([1]; BETA IRRADIATION 0 KGy): 99.73% | Purity ([1]; BETA IRRADIATION 2 KGy): 99.73% | Purity ([1]; BETA IRRADIATION 4 KGy): 99.66% | Purity ([1]; BETA IRRADIATION 6 KGy): 99.67% | Purity ([1]; BETA IRRADIATION 8 KGy): 99.51% | Purity ([1]; BETA IRRADIATION 10 KGy): 99.49% | Purity ([1]; GAMMA IRRADIATION 0 KGy): 99.73% | Purity ([1]; GAMMA IRRADIATION 2 KGy): 99.73% | Purity ([1]; GAMMA IRRADIATION 4 KGy): 99.68% | Purity ([1]; GAMMA IRRADIATION 6 KGy): 99.70% | Purity ([1]; GAMMA IRRADIATION 8 KGy): 99.07% | particle size distribution d(0.1) [2]: 0.44 µm | particle size distribution d(0.5) [2]: 1.13 µm | particle size distribution d(0.9) [2]: 2.42 µm
Structure (SMILES): CCC(=O)OCC(=O)[C@@]1(OC(=O)CC)[C@@H](C)C[C@H]2[C@@H]3CCC4=CC(=O)C=C[C@]4(C)[C@@]3(Cl)[C@@H](O)C[C@@]21C [BDP Powder, Beclomethasone Dipropionate]
